Assay results as given in the supplement of paper PMC10307832.

Columns and labels:
Test in all cases: relative viability (nuclei count vs DMSO), 5 days (fraction); higher = more cells survive
RO-3306 + Navitoclax = compound: C1=CC2=C(C=CC(=C2)C=C3C(=O)NC(=NCC4=CC=CS4)S3)N=C1 [RO-3306] + CC1(C)CCC(c2ccc(Cl)cc2)=C(CN2CCN(c3ccc(C(=O)NS(=O)(=O)c4ccc(N[C@H](CCN5CCOCC5)CSc5ccccc5)c(S(=O)(=O)C(F)(F)F)c4)cc3)CC2)C1 [Navitoclax] (partner 0.5 µM)
Method in brief: (§1)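 For relative viability, nuclei counts in treated wells were divided by those in vehicle wells. Lung cancer cell lines had been pin-tool dosed in 1536-well plates the day after seeding and cultured for 5 days, then fixed and stained in one step (final 0.05% Triton X-100, 1% formaldehyde, 1 ug/ml Hoechst) and imaged at 4×. Doses were one drug alone or a fixed anchor-drug dose plus five library-drug doses (not always all listed) in √10 steps, and values are duplicate-plate medians.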

RO-3306 + Pemetrexed = compound: C1=CC2=C(C=CC(=C2)C=C3C(=O)NC(=NCC4=CC=CS4)S3)N=C1 [RO-3306] + Nc1nc2[nH]cc(CCc3ccc(C(=O)N[C@@H](CCC(=O)O)C(=O)O)cc3)c2c(=O)[nH]1 [Pemetrexed] (partner 0.2 µM)
Method in brief: as §1

[1] = compound: O=S(=O)(c1ccccc1)N(CC(F)(F)F)c1ccc(C(O)(C(F)(F)F)C(F)(F)F)cc1 + CC(=O)c1c(C)c2cnc(Nc3ccc(N4CCNCC4)cn3)nc2n(C2CCCC2)c1=O [Palbociclib] (partner 0.5 µM)
Method in brief: as §1

RO-3306 + AZD7762 = compound: C1=CC2=C(C=CC(=C2)C=C3C(=O)NC(=NCC4=CC=CS4)S3)N=C1 [RO-3306] + NC(=O)Nc1cc(-c2cccc(F)c2)sc1C(=O)N[C@H]1CCCNC1 [AZD7762] (partner 0.2 µM)
Method in brief: as §1

| Cell Line | relative viability (RO-3306 + Navitoclax; first compound 0.01 µM) | relative viability (RO-3306 + Navitoclax; first compound 0.03162 µM) | relative viability (RO-3306 + Navitoclax; first compound 0.1 µM) | relative viability (RO-3306 + Navitoclax; first compound 0.3162 µM) | relative viability (RO-3306 + Navitoclax; first compound 1 µM) | relative viability (RO-3306 + Pemetrexed; first compound 0.01 µM) | relative viability (RO-3306 + Pemetrexed; first compound 0.03162 µM) | relative viability (RO-3306 + Pemetrexed; first compound 0.1 µM) | relative viability (RO-3306 + Pemetrexed; first compound 0.3162 µM) | relative viability (RO-3306 + Pemetrexed; first compound 1 µM) | relative viability ([1]; first compound 0.8 µM) | relative viability ([1]; first compound 2.53 µM) | relative viability ([1]; first compound 8 µM) | relative viability (RO-3306 + AZD7762; first compound 0.01 µM) | relative viability (RO-3306 + AZD7762; first compound 0.03162 µM) | relative viability (RO-3306 + AZD7762; first compound 0.1 µM) | relative viability (RO-3306 + AZD7762; first compound 0.3162 µM) | relative viability (RO-3306 + AZD7762; first compound 1 µM) |
| --- | --- | --- | --- | --- | --- | --- | --- | --- | --- | --- | --- | --- | --- | --- | --- | --- | --- | --- |
| LK-2 | 0.892 | 0.751 | 0.828 | 0.913 | 0.792 | 0.266 | 0.293 | 0.264 | 0.275 | 0.288 | 0.508 | 0.742 | 0.705 | 0.459 | 0.354 | 0.425 | 0.448 | 0.472 |
| LOU-NH91 | 0.666 | 0.612 | 0.702 | 0.685 | 0.645 | 0.354 | 0.346 | 0.346 | 0.399 | 0.373 | 0.524 | 0.527 | 0.561 | 0.76 | 0.721 | 0.746 | 0.721 | 0.667 |
| LU99A | 0.916 | 0.708 | 0.866 | 0.747 | 0.803 | 0.285 | 0.267 | 0.174 | 0.176 | 0.188 | 0.407 | 0.343 | 0.374 | 0.394 | 0.325 | 0.483 | 0.319 | 0.338 |
| LXF-289 | 0.992 | 0.961 | 0.972 | 0.976 | 0.993 | 0.805 | 0.8 | 1.04 | 0.9 | 0.868 | 0.574 | 0.502 | 0.534 | 1.08 | 0.993 | 1.17 | 0.973 | 1.22 |
| NCI-H23 | 0.965 | 0.842 | 0.87 | 0.881 | 0.613 | 0.695 | – | 0.723 | 0.591 | 0.617 | 0.484 | 0.526 | 0.478 | 0.249 | – | 0.21 | 0.303 | 0.227 |
| NCI-H322M | 1.24 | 1.14 | 1.25 | 1.22 | 1.19 | 0.624 | 0.613 | 0.574 | 0.695 | 0.592 | 0.503 | 0.497 | 0.51 | 0.538 | 0.697 | 0.625 | 0.597 | 0.582 |
| NCI-H441 | 0.593 | 0.71 | 0.382 | 0.57 | 0.364 | 0.266 | 0.276 | 0.228 | 0.235 | 0.23 | 0.212 | 0.16 | 0.211 | 1.02 | 0.782 | 1.21 | 0.948 | 1.03 |
| NCI-H460 | 1.26 | – | 1.26 | 1.35 | 1.22 | 0.0602 | 0.0669 | 0.0671 | 0.0618 | 0.0563 | 0.16 | 0.133 | 0.113 | 0.797 | 0.675 | 0.682 | 0.737 | 0.785 |
| NCI-H647 | 1.45 | 1.24 | 1.07 | 1.24 | 0.966 | 0.177 | 0.157 | 0.153 | 0.174 | 0.167 | 0.329 | 0.305 | 0.408 | 0.519 | 0.339 | 0.325 | 0.515 | 0.31 |
| NCI-H838 | 1.26 | 1.14 | 1.17 | 1.19 | 1.21 | 0.256 | 0.252 | 0.252 | 0.251 | 0.282 | 0.241 | 0.244 | 0.276 | 1.03 | 0.908 | 0.975 | 0.972 | 0.931 |
| NCI-H1355 | 1.12 | 0.915 | 0.949 | 1.04 | 0.946 | 1.15 | 0.976 | 0.961 | 0.97 | 1.05 | 0.377 | 0.42 | 0.359 | 0.792 | 0.762 | 0.677 | 0.694 | 0.863 |
| NCI-H1395 | 1.13 | 1.38 | 1.11 | 1.04 | 0.978 | 0.678 | 0.751 | 0.728 | 0.726 | 0.549 | 0.642 | 0.627 | 0.603 | 0.44 | 0.42 | 0.374 | 0.374 | 0.427 |
| NCI-H1437 | 1.16 | 0.996 | 1.05 | 1.13 | 1.1 | 0.343 | 0.311 | 0.374 | 0.344 | 0.37 | 0.308 | 0.268 | 0.304 | 1.2 | 1.08 | 1.11 | 1.15 | 0.882 |
| NCI-H1651 | 0.982 | 0.854 | 1.04 | 1.14 | 0.882 | 0.644 | 0.569 | 0.554 | 0.556 | 0.54 | 0.555 | 0.503 | 0.5 | 0.437 | 0.406 | 0.454 | 0.424 | 0.469 |
| NCI-H1666 | 0.954 | 0.871 | 0.858 | 0.86 | 0.779 | 0.94 | 0.798 | 0.819 | 0.836 | 0.868 | 0.645 | 0.657 | 0.601 | 0.787 | 0.878 | 0.858 | 0.88 | 0.799 |
| NCI-H1734 | 1 | 0.564 | 0.922 | 0.797 | 0.873 | 0.394 | 0.41 | 0.372 | 0.414 | 0.432 | 0.348 | 0.363 | 0.326 | 0.596 | 0.491 | 0.536 | 0.585 | 0.483 |
